Reference: patent US6699868B2, “Pyridazinyl phenyl hydrazones useful against congestive heart failure” (Orion Corporation, priority 2000, dated 2004)
Read-outs that look alike come from different tables or passages of the source.

Tests used:
skinned cardiac fiber = assay: Calcium sensitizing effect in skinned cardiac fiber; format: cell-based, guinea-pig; settings: test compound 0.1-10 μM added cumulatively, calcium (pCa 6.0 or 6.2)-induced tension, room temperature; for Emax: Cavia porcellus, maximum effect, read-out: Change in force/ % change from control (maximum calcium sensitizing effect in skinned fiber)
Protocol: Experiment 1. Calcium sensitizing effect in skinned cardiac fiber
The heart of a guinea-pig was excised and perfused with ice-cold saponin (125 mg/l) skinning solution consisting of (mM): K^+-acetate 74.7. EGTA-Na2 10, MgSO4 5.4, ATP-Na2 4, MOPS 20, pH 7.0 (by 1 M KOH). Left ventricular papillary muscle was dissected and sonicated at 10 Watt for 60 s. The distance between ultrasound probe and the papillary muscle was 10 mm. The fibres (<200 μm in diameter) were dissected from the surface of sonicated papillary muscles in the same solution.
The fibre was glued between platinum wires, one attached to an isometric force transducer (type AE-801,SensoNor, Horten, Norway) and another to a micro manipulator. The fibre was relaxed in a solution consisting of (mM): EGTA-Na2 10, MgSO4 5.4, ATP-Na2 4, MOPS 20. The pH of the solution was adjusted to 7.0 and ionic strength to 0.16 M by the addition of KOH and K^+-acetate. Creatine kinase and creatine phosphate were not added as an ATP generating system because the developed tension was well sustained for the time required for experiment. The calculations for ionic strength and for free calcium (pCa 7.0-6.2) were performed using a suitable program. The fibres were stretched in relaxing solution until resting tension was just noticeable. When the calcium (pCa 6.0 or 6.2)-induced tension had reached steady state the test compound (final concentrations 0.1, 0.3, 1, 3,and 10 μM) was cumulatively added into the solution at 6 min intervals. All the experiments were carried out with fresh fibres at normal room temperature.

isolated heart = assay: Effect in left ventricular pressure derivatives in isolated heart (Langendorff); settings: isolated guinea-pig heart, constant pressure 50 mmHg, 37° C., read-out: EC50 on maximal positive derivative of the left ventricular systolic pressure
Protocol: Experiment 2. Effect in left ventricular pressure derivatives in isolated heart
After sacrification the heart of a guinea-pig was rapidly excised and rinsed in oxygenated perfusion buffer. A cannula was inserted into the aorta and secured with a ligature. Retrograde perfusion began as soon as the heart was placed in a thermostatically controlled moist chamber of the Langendorff apparatus (Hugo Sachs Elektronik, KG). Modified Tyrode solution (37° C.), equilibrated in a thermostatically controlled bulb oxygenator with carbogen (95% O2 and 5% CO2), was used as a perfusion buffer. The composition of the Tyrode solution was (in mM): NaCl 135; MgCl2×6H2O 1; KCl 5; CaCl2×2H2O 2; NaHCO3 15; Na2HPO4×2H2O 1; glucose 10; pH 7.3-7.4. The perfusion buffer was delivered at the top of the oxygenator by a pump and driven automatically by its controller. Subsequently, the buffer was delivered into the bulbs of the oxygenator chamber by a rotating disk. It was dispersed by making a thin fluid film on a large inner oxygenator surface in O2/CO2 atmosphere leading to saturation of the perfusate with oxygen (partial pressure 660 mmHg at 37° C.).
The experiments were carried out under constant pressure condition (50 mmHg). After a short prestabilization (10 min) a latex balloon (size 4) was carefully placed into the left ventricle through the left pulmonary vein and the left atrium. The latex balloon was attached to a stainless-steel cannula coupled with a pressure transducer. The latex balloon, the cannula and the chamber of the pressure transducer were carefully filled with ethylene glycol/water (1:1) mixture avoiding any air-bubble. The isovolumetric left ventricular pressure was recorded through the pressure transducer. At the beginning of the experiment, the volume of the balloon was adjusted to obtain a diastolic pressure of approximately 5 mmHg. Before starting the experiment the heart was allowed to stabilise further for 30-50 min. The systolic and end-diastolic left ventricular pressures were recorded for calculating the maximal positive and negative derivatives of the left ventricular pressure.

SMILES | Emax (skinned cardiac fiber) [%] | EC50 (isolated heart; Cavia porcellus) [nM] | melting point [°C] | Change in force/ % change from control (maximum calcium sensitizing effect in skinned fiber) (skinned cardiac fiber) [% change from control] | EC50 (isolated heart) [nM]
COc1c(O)ccc(C=NNc2ccc(C3=NNC(=O)C[C@H]3C)cc2)c1[N+](=O)[O-] [Example 2, (R)-6-{4-[N′-(4-Hydroxy-3-methoxy-2-nitro-benzylidene)-hydrazino]-phenyl}-5-methyl-4,5-dihydro-2H-pyridazin-3-one] | 207 | 20 | – | – | –
COc1c(O)ccc(C=NNc2ccc(C3=NNC(=O)CC3C)cc2)c1[N+](=O)[O-] (centres unmarked) [Example 6, 6-{4-[N′-(4-Hydroxy-3-methoxy-2-nitro-benzylidene)-hydrazino]-phenyl}-5-methyl-4,5-dihydro-2H-pyridazin-3-one] | 32.9 | 310 | 235 to 239 | – | –
Cc1cc(=O)[nH]nc1-c1ccc(NN=Cc2ccc(O)cc2O)cc1 [Example 21, 6-{4-[N′-(2,4-Dihydroxybenzylidene)hydrazino]phenyl}-5-methyl-2H-pyridazin-3-one] | 44.2 | 3040 | 303 to 310 | – | –
CC(=NNc1ccc(-c2n[nH]c(=O)cc2C)cc1)c1ccc(O)cc1O [Example 23, 6-{4-{N′-[1-(2,4-Dihydroxyphenyl)ethylidene]hydrazino}phenyl}-5-methyl-2H-pyridazin-3-one] | 39.9 | 2470 | – | – | –
CC(=NNc1ccc(C2=NNC(=O)CC2C)cc1)c1ccc(O)cc1O (centres unmarked) [Example 33, 6-(4-{N′-[1-(2,4-Dihydroxy-phenyl)-ethylidene]-hydrazino}-phenyl)-5-methyl-4,5-dihydro-2H-pyridazin-3-one] | 55.2 | 400 | 259 to 261 | – | –
CC1CC(=O)NN=C1c1ccc(NN=C(c2ccc(O)cc2O)c2ccc(O)cc2O)cc1 (centres unmarked) [Example 34, 6-(4-{N′-[Bis-(2,4-dihydroxy-phenyl)-methylene]-hydrazino}-phenyl)-5-methyl-4,5-dihydro-2H-pyridazin-3-one] | 52.8 | 110 | – | – | –
CC(=NNc1ccc(C2=NNC(=O)CC2C)cc1)c1cc(O)ccc1O (centres unmarked) [Example 35, 6-(4-{N′-[1-(2,5-Dihydroxy-phenyl)-ethylidene]-hydrazino}-phenyl)-5-methyl-4,5-dihydro-2H-pyridazin-3-one] | 25.4 | 310 | 279 to 284 | – | –
CCc1c(O)ccc(C=NNc2ccc(C3=NNC(=O)CC3C)cc2)c1O (centres unmarked) [Example 40, 6-{4-[N′-(3-Ethyl-2,4-dihydroxy-benzylidene)-hydrazino]-phenyl}-5-methyl-4,5-dihydro-2H-pyridazin-3-one] | 100 | 710 | 238 to 240 | – | –
CCCc1c(O)ccc(C=NNc2ccc(C3=NNC(=O)CC3C)cc2)c1O (centres unmarked) [Example 43, 6-{4-[N′-(2,4-Dihydroxy-3-propyl-benzylidene)-hydrazino]-phenyl}-5-methyl-4,5-dihydro-2H-pyridazin-3-one] | 39 | 1750 | 160 to 170 | – | –
CC(=NNc1ccc(C2=NNC(=O)CC2C)cc1)c1ccc(O)c(C)c1O (centres unmarked) [Example 49, 6-(4-{N-[1-(2,4-Dihydroxy-3-methylphenyl)ethylidene]hydrazino}phenyl)-5-methyl-4,5-dihydro-2H-pyridazin-3-one] | – | – | – | 28.7 | 250
